{"source": "patent US5230998A", "about": "“Method for the prescreening of drugs targeted to the V3 hypervariable loop of the HIV-1 envelope glycoprotein gp 120” (priority 1991, dated 1993)", "key": {"HIV-1 [1]": {"tested_on": "HIV-1", "test": "Antiviral activity: inhibition of P24 production in MT-2 cells", "type": "cell-based, HIV-1 IIIB", "description": "All chemicals were tested at serial two-fold dilutions (1.25-80 μg/ml, prepared from a stock solution containing 10 mg/ml in dimethylsulfoxide). The chemicals were obtained from Aldrich, Milwaukee, Wis. or were synthesized. Their inhibitory activity was determined by two distinct methods, based on inhibition of synthesis of core protein P24 and on protection by the chemicals of cells against the cytopathic effect of HIV-1 (colorimetric method) respectively.\nThe chemicals were serially diluted in RPMI 1640 medium without phenol red (GIBCO, Grand Island, N.Y.) containing 10% fetal calf serum (FCS). Aliquots of the diluted solutions were added to wells of 96 well plates and mixed with an equal volume of diluted HIV-1 [multiplicity of infection (MOI) =0.0045]. After incubation for 1 hour at 37° C., 25 μl of polybrene (1 μg/ml) treated MT-2 cells (Harada, S., Koyanagi, Y., Yamamoto, N., (1985), \"Infection of HTLV-III/LAV in HTLV-I-carrying Cells MT-2 and MT-4 and Application in a Plaque Assay\", Science, 229, 563-566), (5,000 cells/well) were added. The mixture was incubated for 1 hour at 37° C. and the volume was adjusted with RPMI 1640 medium with 10% FCS to 200 μl. On the fourth day after incubation at 37° C., 100 μl of culture supernatants were collected from each well and equal volumes of fresh medium were added to the wells. The supernatants were assayed for P24 using a kit from Coulter Immunology (Hialeah, Fla.). On the sixth day, an indicator XTT tetrazolium dye (1 mg/ml; 50 μl/well; PolySciences, Inc., Warrington, Penna.) was added to the cells. After 4 hours, intracellular formazan was determined colorimetrically at 450 nm.\n^c Chemicals with inhibitory activity in ELISA (RIA) tests were teste\n^d EC50 = concentration at which the production of P24 was […]"}, "[2]": {"target": "T1, HIV-1 JY-1 V3 hypervariable loop peptide (Human immunodeficiency virus type 1 lw12.3 isolate, UniProt Q70626)", "T1 construct": "cut from Env gp160", "T1 sequence (Q70626 296-331)": "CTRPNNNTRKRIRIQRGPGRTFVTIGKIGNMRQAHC", "test": "Reactivity/attachment of ATA with V3 hypervariable loop peptides of distinct HIV-1 isolates (FIG. 4)", "type": "binding", "description": "(§1) FIG. 4 comprises bar graphs depicting the interaction of aurintricarboxylic acid (ATA) with full length V3 hypervariable loop peptides from gp120 of distinct HIV-1 isolates (clones). FIG. 4A: Inhibitory effects of ATA (50 μg/ml) on the reaction between peptide-coated wells and homologous anti-peptide antisera (diluted 1:1,000). FIG. 4B: attachment of ATA to distinct V3 hypervariable loop peptide-coated wells as determined by double antibody RIA using rabbit antiserum against ATA.\n(§2) To define sites on gp120/gp41 reacting with ATA, the inhibitory effect of this compound was studied by RIA tests using gp120- and gp160-coated wells, respectively, and antisera (final dilutions 1:150) against synthetic peptides from the entire sequence of gp120/gp41 of HIV-1 BH 10. The preparation and biological properties of these antisera were described elsewhere (Neurath et al., (1990), J. Gen. Virol., 71, 85-95). Each of the antisera was diluted in a mixture of fetal bovine serum and goat serum (9:1) containing 0.1% Tween 20, adjusted to pH 8. ATA (final concentration 50 μg/ml) was added in one set of assays, but was omitted from a parallel set. After incubation overnight at 25° C., the plates were washed with TS. Attached rabbit IgG was detected using ^125 I-labeled anti-rabbit IgG, as described before (Neurath et al., 1990, J. Gen. Virol., 71, 85-95). Similarly, the inhibitory effect of ATA on the reaction of peptides derived from gp120/gp41 and of peptides derived from V3 hypervariable loops from gp120 of distinct HIV-1 isolates with the respective homologous anti-peptide antisera was studied. In the latter case, antisera were diluted 1:1,000 for the assays.\n(§3) ATA was also added to a control peptide, (518-542), and to wells coated with gelatin only. After incubation for 4 hours at 20° C., excess ATA was removed, the wells were washed with TS and attached ATA was determined by double-antibody RIA using serial dilutions of the anti-ATA antiserum. […]"}, "[3]": {"target": "T2, HIV-1 SC V3 hypervariable loop peptide (Human immunodeficiency virus type 1 (SC ISOLATE), UniProt P05878)", "T2 construct": "cut from Env gp160", "T2 sequence (P05878 296-330)": "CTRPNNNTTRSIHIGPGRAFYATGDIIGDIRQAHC", "test": "Reactivity/attachment of ATA with V3 hypervariable loop peptides of distinct HIV-1 isolates (FIG. 4)", "type": "binding", "description": "as §1, §2, §3"}, "HIV-1 [4]": {"tested_on": "HIV-1", "test": "HIV-1 infection marker: viral DNA in ATA-treated cultures", "type": "cell-based", "text": "The combined effects of AZT and ATA, and other compounds shown to be effective in Table 1, hereinbelow, against HIV-1 are also contemplated by the present invention, since synergistic drug combinations would offer means for alleviating toxicity due to AZT, observed in clinical settings. Contemplated combinations include, for example, AZT+ATA, AZT+chlorin e6; AZT+deuteroporphyrin IX, 2,4(4,2) hydroxyethyvinyl; and AZT+meso-tetra(4-carboxyphenyl)porphine."}}}
{"compound": "C=Cc1c(C)c2cc3nc(c(CC(=O)O)c4[nH]c(cc5nc(cc1[nH]2)C(C)=C5CC)c(C)c4C(=O)O)[C@@H](CCC(=O)O)[C@@H]3C", "note": "[substance #149, chlorine e6]", "values": [{"measurement": "EC50", "setting": "HIV-1 [1]; Human immunodeficiency virus 1, MT2, read-out: EC50 (concentration at which the production of P24 was reduced to 50% of that detected in control cultures)", "result": 0.8, "unit": "µg/mL"}, {"measurement": "inhibition at 40 µg/mL", "setting": "HIV-1 [1]; Human immunodeficiency virus 1, MT2, read-out: percentage of inhibition of P24 nucleoprotein production", "result": 100, "unit": "%"}]}
{"compound": "O=C(O)C1=CC(=C(c2ccc(O)c(C(=O)O)c2)c2ccc(O)c(C(=O)O)c2)C=CC1=O", "note": "[substance #122, aurintricarboxylic acid]", "values": [{"measurement": "reactivity of ATA with V3 hypervariable loop peptide", "setting": "[2]", "result": "minimal"}, {"measurement": "reactivity of ATA with V3 hypervariable loop peptide", "setting": "[3]; FIG. 4", "result": "minimal"}, {"measurement": "ATA binding to V3 peptide", "setting": "[3]; FIG. 4B", "result": "bound very little ATA"}, {"measurement": "viral DNA in treated cultures", "setting": "HIV-1 [4]", "result": "almost undetectable"}]}
